# Experimental data published in article PMC11785675, “Phase Ib study of the oral PI3Kδ inhibitor linperlisib in patients with advanced solid tumors” (International Journal of Clinical Oncology, 2024).
# Tests used:
# [1] = tested on: CT26 cancer model; details: preclinical findings, no reference given; cited from earlier work
# [2] = tested on: relapsed or refractory B-cell hematological malignancies; parameters: method as in PMID 34425850; details: phase Ia, cited from earlier work
# [3] = tested on: patients with advanced solid tumors; details: 80 mg/day oral;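 also: phase Ib open-label single-arm trial, once-daily dosing in 28-day cycles, adverse events graded by NCI CTCAE v5.0, recorded until at least 30 days post last dose, incidence as patient counts and percentages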
# Method: This phase Ib, single-arm, open-label, multi-center clinical trial recruited patients with advanced or metastatic solid tumors from eight sites in China.
# The main exclusion criteria included prior use of PI3K targeted agents and clinically symptomatic central nervous system metastasis or meningeal metastasis.
# Patients received oral linperlisib 80 mg once per day, taken with warm water either 1 h prior to or 2 h after a meal every day, in a 28-day cycle. Dose adjustments, including holds and reductions, were mandated for grade 3/4 hematologic and grade 3 non-hematologic toxicity. Treatment with linperlisib continued until disease progression, intolerable toxicity, withdrawal of informed consent, death or any other conditions deemed by the investigator to warrant drug discontinuation.
# Physical examination, assessment of ECOG performance status, clinical laboratory evaluations, electrocardiogram, and other safety evaluations were conducted to assess safety. AEs were graded according to the National Cancer Institute Common Terminology Criteria for Adverse Events (CTCAE), Version 5.0. All AEs were recorded from the time of signing the informed consent to at least 30 days after the last dose, and were followed until resolution or stabilization. Patients underwent radiographic assessments every 8 weeks by enhanced computed tomography or magnetic resonance imaging according to RECIST 1.1.
# The primary endpoint was safety as assessed by monitoring the frequency, duration, and severity of AEs. Secondary endpoints were efficacy endpoints, including ORR, DCR, and progression-free survival (PFS).
# Baseline data are presented descriptively. ORR is determined by the proportion of patients who achieve a confirmed complete response (CR) or partial response (PR) as the best overall response, and is presented with CIs. PFS and overall survival (OS) curves are generated using the Kaplan–Meier method. The incidence of AEs and serious AEs (SAEs) are reported as numbers and percentages.
smiles,measurement,setting,value
COc1ncc(-c2nc(N3CCOCC3)nc3c(CN4CCC(C(C)(C)O)CC4)cc(F)cc23)cc1NS(C)(=O)=O [linperlisib],Tumor volume,[1],reduced tumor volume
same,Objective response rate (ORR),"[2]; 20 to 200 mg, 16/25, 95% CI 45.2–82.8",64%
same,Disease control rate (DCR),"[2]; 20 to 200 mg, 18/25, 95% CI 54.4–89.6",72%
same,Dose-limiting toxicities,[2]; highest 200 mg/day dose,no dose-limiting toxicities were observed
same,"Incidence of hyperglycemia related to linperlisib, ≥ grade 3",[3],0%
same,Grade ≥ 3 TEAE anemia,[3]; 94 patients,3.2%
same,Grade ≥ 3 TEAE diarrhea,[3]; 94 patients,4.3%
same,Grade ≥ 3 TEAE increased ALT,[3]; 94 patients,3.2%
same,Grade ≥ 3 TEAE increased AST,[3]; 94 patients,3.2%
same,Grade ≥ 3 TEAE increased blood alkaline phosphatase,[3]; 94 patients,3.2%
same,Grade ≥ 3 TEAE neutropenia,[3]; 94 patients,3.2%
same,Patients who suspended linperlisib due to TRAEs,[3]; 94 patients,19.1%
same,"Patients who terminated linperlisib due to vomiting, esophagitis, gastritis, or drug eruption",[3]; 94 patients,2.1%
same,Patients who withdrew from the trial because of TRAEs,[3]; 94 patients,5.3%
same,Patients with SAEs related to linperlisib,[3]; 94 patients,10.6%
same,Patients with TEAEs of grade 3 or greater,[3]; 94 patients,45.7%
same,Patients with TRAEs of grade 3 or greater,[3]; 94 patients,28.7%
same,Patients with at least one TEAE,[3]; 94 patients,97.9%
same,Patients with at least one treatment-related AE (TRAE),[3]; 94 patients,89.4%
same,Patients with dose reduction (elevated γ-glutamyltransferase and diarrhea),[3]; 94 patients,2.1%
same,"TEAE abdominal pain, all grades",[3]; 94 patients,11 (11.7) n (%)
same,"TEAE abdominal pain, grade ≥ 3",[3]; 94 patients,1 (1.1) n (%)
same,"TEAE anemia, all grades",[3]; 94 patients,20 (21.3) n (%)
same,"TEAE anemia, all grades irrespective of causality",[3]; 94 patients,21.3%
same,"TEAE anemia, grade ≥ 3",[3]; 94 patients,3 (3.2) n (%)
same,"TEAE asthenia, all grades",[3]; 94 patients,15 (16.0) n (%)
same,"TEAE asthenia, grade ≥ 3",[3]; 94 patients,0 n (%)
same,"TEAE decreased appetite, all grades",[3]; 94 patients,24 (25.5) n (%)
same,"TEAE decreased appetite, all grades irrespective of causality",[3]; 94 patients,25.5%
same,"TEAE decreased appetite, grade ≥ 3",[3]; 94 patients,1 (1.1) n (%)
same,"TEAE diarrhea, all grades",[3]; 94 patients,11 (11.7) n (%)
same,"TEAE diarrhea, grade ≥ 3",[3]; 94 patients,4 (4.3) n (%)
same,"TEAE elevated γ-glutamyltransferase, all grades",[3]; 94 patients,18 (19.1) n (%)
same,"TEAE elevated γ-glutamyltransferase, grade ≥ 3",[3]; 94 patients,2 (2.1) n (%)
same,"TEAE hypercholesterolemia, all grades",[3]; 94 patients,12 (12.8) n (%)
same,"TEAE hypercholesterolemia, grade ≥ 3",[3]; 94 patients,1 (1.1) n (%)
same,"TEAE hypertriglyceridemia, all grades",[3]; 94 patients,10 (10.6) n (%)
same,"TEAE hypertriglyceridemia, grade ≥ 3",[3]; 94 patients,0 n (%)
same,"TEAE hypoalbuminemia, all grades",[3]; 94 patients,15 (16.0) n (%)
same,"TEAE hypoalbuminemia, grade ≥ 3",[3]; 94 patients,0 n (%)
same,"TEAE hyponatremia, all grades",[3]; 94 patients,15 (16.0) n (%)
same,"TEAE hyponatremia, grade ≥ 3",[3]; 94 patients,1 (1.1) n (%)
same,"TEAE increased ALT, all grades",[3]; 94 patients,21 (22.3) n (%)
same,"TEAE increased ALT, all grades irrespective of causality",[3]; 94 patients,22.3%
same,"TEAE increased ALT, grade ≥ 3",[3]; 94 patients,3 (3.2) n (%)
same,"TEAE increased AST, all grades",[3]; 94 patients,25 (26.6) n (%)
same,"TEAE increased AST, all grades irrespective of causality",[3]; 94 patients,26.6%
same,"TEAE increased AST, grade ≥ 3",[3]; 94 patients,3 (3.2) n (%)
same,"TEAE increased blood alkaline phosphatase, all grades",[3]; 94 patients,15 (16.0) n (%)
same,"TEAE increased blood alkaline phosphatase, grade ≥ 3",[3]; 94 patients,3 (3.2) n (%)
same,"TEAE increased blood bilirubin, all grades",[3]; 94 patients,16 (17.0) n (%)
same,"TEAE increased blood bilirubin, grade ≥ 3",[3]; 94 patients,1 (1.1) n (%)
same,"TEAE increased blood creatinine, all grades",[3]; 94 patients,18 (19.1) n (%)
same,"TEAE increased blood creatinine, grade ≥ 3",[3]; 94 patients,2 (2.1) n (%)
same,"TEAE increased blood lactate dehydrogenase, all grades",[3]; 94 patients,13 (13.8) n (%)
same,"TEAE increased blood lactate dehydrogenase, grade ≥ 3",[3]; 94 patients,0 n (%)
same,"TEAE leukopenia, all grades",[3]; 94 patients,16 (17.0) n (%)
same,"TEAE leukopenia, grade ≥ 3",[3]; 94 patients,1 (1.1) n (%)
same,"TEAE nausea, all grades",[3]; 94 patients,16 (17.0) n (%)
same,"TEAE nausea, grade ≥ 3",[3]; 94 patients,0 n (%)
same,"TEAE neutropenia, all grades",[3]; 94 patients,13 (13.8) n (%)
same,"TEAE neutropenia, grade ≥ 3",[3]; 94 patients,3 (3.2) n (%)
same,"TEAE protein urine present, all grades",[3]; 94 patients,10 (10.6) n (%)
same,"TEAE protein urine present, grade ≥ 3",[3]; 94 patients,0 n (%)
same,"TEAE proteinuria, all grades",[3]; 94 patients,25 (26.6) n (%)
same,"TEAE proteinuria, all grades irrespective of causality",[3]; 94 patients,26.6%
same,"TEAE proteinuria, grade ≥ 3",[3]; 94 patients,0 n (%)
same,"TEAE pyrexia, all grades",[3]; 94 patients,10 (10.6) n (%)
same,"TEAE pyrexia, grade ≥ 3",[3]; 94 patients,0 n (%)
same,"TEAE rash, all grades",[3]; 94 patients,14 (14.9) n (%)
same,"TEAE rash, grade ≥ 3",[3]; 94 patients,2 (2.1) n (%)
same,"TEAE vomiting, all grades",[3]; 94 patients,15 (16.0) n (%)
same,"TEAE vomiting, grade ≥ 3",[3]; 94 patients,2 (2.1) n (%)
same,"TEAE weight loss, all grades",[3]; 94 patients,20 (21.3) n (%)
same,"TEAE weight loss, all grades irrespective of causality",[3]; 94 patients,21.3%
same,"TEAE weight loss, grade ≥ 3",[3]; 94 patients,0 n (%)
same,TRAE decreased appetite,[3]; 94 patients,18.1%
same,TRAE elevated γ-glutamyltransferase,[3]; 94 patients,16.0%
same,TRAE increased ALT,[3]; 94 patients,18.1%
same,TRAE increased AST,[3]; 94 patients,22.3%
same,TRAE proteinuria,[3]; 94 patients,21.3%
same,TRAEs leading to death,[3]; 94 patients,No TRAEs leading to death were reported
